Experimental data: ChEMBL document CHEMBL3588800, “Novel Bioactive Hybrid Compound Dual Targeting Estrogen Receptor and Histone Deacetylase for the Treatment of Breast Cancer” (J Med Chem, 2015); call rule not given here

Columns and labels:
[1] = biological target: T1, Estrogen receptor (Homo sapiens, UniProt P03372); test: Agonist activity at ER-alpha (unknown origin) transfected in HEK293T cells assessed as stimulation of transcriptional activity after 24 hrs by luciferase reporter gene assay; assay type: cell-based, HEK-293T
T1 sequence (P03372 whole entry): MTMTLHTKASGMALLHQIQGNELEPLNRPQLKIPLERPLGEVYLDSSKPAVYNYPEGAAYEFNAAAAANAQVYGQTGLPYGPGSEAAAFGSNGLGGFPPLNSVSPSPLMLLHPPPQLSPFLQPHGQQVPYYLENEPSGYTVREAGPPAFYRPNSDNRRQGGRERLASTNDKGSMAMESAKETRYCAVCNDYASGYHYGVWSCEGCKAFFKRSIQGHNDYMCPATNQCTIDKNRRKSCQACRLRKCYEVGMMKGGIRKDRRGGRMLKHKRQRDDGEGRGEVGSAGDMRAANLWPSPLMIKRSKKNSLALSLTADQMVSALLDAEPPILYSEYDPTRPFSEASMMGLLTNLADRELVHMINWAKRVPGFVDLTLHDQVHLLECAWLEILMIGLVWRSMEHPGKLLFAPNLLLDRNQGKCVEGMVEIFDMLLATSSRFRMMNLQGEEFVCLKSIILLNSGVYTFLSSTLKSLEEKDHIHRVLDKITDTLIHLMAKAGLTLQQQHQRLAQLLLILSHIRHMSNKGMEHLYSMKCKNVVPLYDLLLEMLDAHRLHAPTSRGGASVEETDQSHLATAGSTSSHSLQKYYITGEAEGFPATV

[2] = biological target: T1, Estrogen receptor; test: Binding affinity to human ER-alpha ligand binding domain after 2 hrs by competitive fluorometric binding assay
[3] = biological target: T2, Estrogen receptor beta (Homo sapiens, UniProt Q92731); test: Agonist activity at ER-beta (unknown origin) transfected in HEK293T cells assessed as stimulation of transcriptional activity after 24 hrs by luciferase reporter gene assay; assay type: cell-based, HEK-293T
[4] = test system: Vero; test: cells; assay type: ADME, cell-based; conditions: Chlorocebus sabaeus, 72 h
[5] = biological target: T2, Estrogen receptor beta; test: Antagonist activity at ER-beta (unknown origin) transfected in HEK293T cells assessed as inhibition of transcriptional activity after 24 hrs by luciferase reporter gene assay relative to 17-beta estradiol; assay type: cell-based; conditions: HEK-293T
[6] = biological target: T3, Estrogen receptor (Homo sapiens) (UniProt P03372); test: Agonist activity at ER-alpha (unknown origin) transfected in HEK293T cells assessed as stimulation of transcriptional activity after 24 hrs by luciferase reporter gene assay relative to 17-beta estradiol; assay type: cell-based; conditions: HEK-293T
T3 sequence (whole entry): T1 sequence (P03372 whole entry)

[7] = Therapeutic index, ratio of IC50 for african green monkey Vero cells to IC50 for human MCF7 cells
[8] = test system: DU-145; test: cells; assay type: functional, cell-based; conditions: Homo sapiens, DU-145, 72 h
[9] = biological target: T2, Estrogen receptor beta; test: Agonist activity at ER-beta (unknown origin) transfected in HEK293T cells assessed as stimulation of transcriptional activity after 24 hrs by luciferase reporter gene assay relative to 17-beta estradiol; assay type: cell-based; conditions: HEK-293T
[10] = biological target: T3, Estrogen receptor (Homo sapiens); test: Antagonist activity at ER-alpha (unknown origin) transfected in HEK293T cells assessed as inhibition of transcriptional activity after 24 hrs by luciferase reporter gene assay relative to 17-beta estradiol; assay type: cell-based; conditions: HEK-293T
[11] = biological target: T2, Estrogen receptor beta; test: Binding affinity to human ER-beta ligand binding domain after 2 hrs by competitive fluorometric binding assay
[12] = test system: MCF7; test: cells; assay type: functional, cell-based; conditions: Homo sapiens, MCF7, 72 h
[13] = biological target: T2, Estrogen receptor beta; test: Antagonist activity at ER-beta (unknown origin) transfected in HEK293T cells assessed as inhibition of transcriptional activity after 24 hrs by luciferase reporter gene assay; assay type: cell-based, HEK-293T
[14] = biological target: Histone deacetylase 1 (Homo sapiens, UniProt Q13547); test: Inhibition of human recombinant HDAC1 after 15 mins by fluorogenic assay
[15] = biological target: T4, Protein deacetylase HDAC6 (Homo sapiens, UniProt Q9UBN7); test: Inhibition of human recombinant HDAC6 after 15 mins by fluorogenic assay; conditions: read-out: IC50
T4 sequence (Q9UBN7 whole entry): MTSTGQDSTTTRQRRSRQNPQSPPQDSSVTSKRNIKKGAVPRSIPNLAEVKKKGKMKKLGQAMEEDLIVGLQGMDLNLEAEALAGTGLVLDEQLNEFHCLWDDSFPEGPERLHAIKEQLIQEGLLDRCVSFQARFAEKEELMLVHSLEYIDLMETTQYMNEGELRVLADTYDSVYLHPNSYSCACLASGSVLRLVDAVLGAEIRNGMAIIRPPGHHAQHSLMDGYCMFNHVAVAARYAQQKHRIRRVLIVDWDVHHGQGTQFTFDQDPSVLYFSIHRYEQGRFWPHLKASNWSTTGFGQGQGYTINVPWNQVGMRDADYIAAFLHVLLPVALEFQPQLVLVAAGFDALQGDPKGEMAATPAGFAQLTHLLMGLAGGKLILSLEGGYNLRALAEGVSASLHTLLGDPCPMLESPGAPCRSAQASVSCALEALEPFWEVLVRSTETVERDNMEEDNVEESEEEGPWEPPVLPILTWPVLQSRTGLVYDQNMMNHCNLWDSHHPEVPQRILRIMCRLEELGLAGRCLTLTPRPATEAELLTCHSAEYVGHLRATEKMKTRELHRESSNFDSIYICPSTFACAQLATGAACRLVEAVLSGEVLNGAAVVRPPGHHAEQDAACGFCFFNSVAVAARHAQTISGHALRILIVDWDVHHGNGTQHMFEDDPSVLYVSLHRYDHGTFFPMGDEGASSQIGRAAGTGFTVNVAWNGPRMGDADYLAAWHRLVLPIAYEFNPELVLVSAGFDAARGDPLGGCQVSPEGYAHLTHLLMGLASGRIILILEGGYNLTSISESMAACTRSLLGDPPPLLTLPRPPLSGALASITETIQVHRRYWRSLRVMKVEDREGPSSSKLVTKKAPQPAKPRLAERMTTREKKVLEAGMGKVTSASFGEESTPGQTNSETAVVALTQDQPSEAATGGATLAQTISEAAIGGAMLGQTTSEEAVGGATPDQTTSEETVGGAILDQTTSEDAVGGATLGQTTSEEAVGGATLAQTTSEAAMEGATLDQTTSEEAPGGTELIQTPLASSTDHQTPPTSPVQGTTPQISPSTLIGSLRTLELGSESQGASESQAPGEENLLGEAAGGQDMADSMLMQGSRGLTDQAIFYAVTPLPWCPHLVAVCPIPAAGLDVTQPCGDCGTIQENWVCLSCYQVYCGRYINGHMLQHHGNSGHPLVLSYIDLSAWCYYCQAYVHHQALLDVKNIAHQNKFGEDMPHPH

[16] = biological target: T1, Estrogen receptor; test: Antagonist activity at ER-alpha (unknown origin) transfected in HEK293T cells assessed as inhibition of transcriptional activity after 24 hrs by luciferase reporter gene assay; assay type: cell-based, HEK-293T

Chain of Histone deacetylase 1 (Q13547 whole entry): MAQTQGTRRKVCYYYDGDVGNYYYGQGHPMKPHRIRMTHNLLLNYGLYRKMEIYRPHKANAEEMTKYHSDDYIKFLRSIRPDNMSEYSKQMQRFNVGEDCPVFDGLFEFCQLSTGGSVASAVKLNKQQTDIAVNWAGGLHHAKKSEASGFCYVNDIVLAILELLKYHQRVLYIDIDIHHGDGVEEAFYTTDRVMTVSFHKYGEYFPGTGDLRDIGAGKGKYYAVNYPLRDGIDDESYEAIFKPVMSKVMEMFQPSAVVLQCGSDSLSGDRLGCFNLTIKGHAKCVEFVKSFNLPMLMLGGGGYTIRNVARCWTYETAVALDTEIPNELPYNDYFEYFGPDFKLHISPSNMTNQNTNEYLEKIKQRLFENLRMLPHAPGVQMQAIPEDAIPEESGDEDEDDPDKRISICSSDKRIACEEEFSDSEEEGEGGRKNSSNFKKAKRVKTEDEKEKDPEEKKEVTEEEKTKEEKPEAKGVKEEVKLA
T2 sequence (Q92731 whole entry): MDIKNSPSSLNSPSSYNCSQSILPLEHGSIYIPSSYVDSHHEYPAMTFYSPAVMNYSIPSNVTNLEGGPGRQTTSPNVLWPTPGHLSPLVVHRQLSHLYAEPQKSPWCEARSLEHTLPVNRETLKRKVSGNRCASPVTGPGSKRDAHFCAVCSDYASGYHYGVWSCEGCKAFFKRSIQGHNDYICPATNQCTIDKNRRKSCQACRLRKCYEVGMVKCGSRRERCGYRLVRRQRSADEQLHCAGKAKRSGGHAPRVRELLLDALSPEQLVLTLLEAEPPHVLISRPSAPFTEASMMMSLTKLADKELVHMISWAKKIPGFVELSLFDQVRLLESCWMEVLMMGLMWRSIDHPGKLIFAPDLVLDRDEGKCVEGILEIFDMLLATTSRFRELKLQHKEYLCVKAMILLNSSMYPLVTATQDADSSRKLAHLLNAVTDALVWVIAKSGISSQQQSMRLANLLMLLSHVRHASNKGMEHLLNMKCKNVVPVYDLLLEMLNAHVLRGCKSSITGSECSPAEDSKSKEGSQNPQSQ

Row | Compound | EC50 [1] | Ki [2] | EC50 [3] | Efficacy [5] | Efficacy [6] | IC50 [8] | Efficacy [9] | Efficacy [10] | Ki [11] | IC50 [12] | IC50 [13] | IC50 ([14]; read-out: IC50) | IC50 [15] | IC50 [16] | IC50 [14] | IC50 [4] | selectivity ratio [7]
1 | O=C(O)CCCCCCC(=O)Nc1ccc(OS(=O)(=O)C2CC3OC2C(c2ccc(O)cc2)=C3c2ccc(O)cc2)cc1 (stereo not given) |  |  |  | 89% | -10% | 34.8 µM | -5% | 25% |  | 19.1 µM | 0.16 µM | 0.107 µM | 8.34 µM | 0.05 µM |  | > 100 µM | 
2 | Cc1cccc(C)c1OS(=O)(=O)C1CC2OC1C(c1ccc(NC(=O)CCCCCCC(=O)O)cc1)=C2c1ccc(O)cc1 (racemic) | 0.32 µM | > 5 µM |  | 87% | 61% | > 100 µM | -8% | 127% | 0.971 µM | > 100 µM |  |  |  |  |  | > 100 µM | 
3 | O=C(CCCCCCC(=O)Nc1ccc(OS(=O)(=O)C2CC3OC2C(c2ccc(O)cc2)=C3c2ccc(O)cc2)cc1)NO (stereo not given) |  | 0.148 µM |  | -27% | -15% | 42.3 µM | 3% | 104% | 0.127 µM | 55.2 µM | 1.14 µM | 0.583 µM | 0.189 µM |  |  | > 100 µM | 
4 | O=C(CCCCCCC(=O)Nc1ccc(C2=C(c3ccc(O)cc3)C3CC(S(=O)(=O)Oc4ccc(Br)cc4)C2O3)cc1)NO (racemic) | 1.14 µM | > 5 µM | 0.173 µM | 91% | 33% | 11.3 µM | 21% | 101% |  | 17.1 µM |  |  | 0.23 µM |  | Not Active | > 100 µM | 
5 | COC(=O)CCCCCCC(=O)Nc1cccc(OS(=O)(=O)C2CC3OC2C(c2ccc(O)cc2)=C3c2ccc(O)cc2)c1 (stereo not given) | 0.001 µM |  |  | 91% | 16% | 19.3 µM | 3% | 111% |  | 19.1 µM |  |  |  |  |  | > 100 µM | 
6 | O=C(CCCCCCC(=O)Nc1ccc(C2=C(c3ccc(O)cc3)C3CC(S(=O)(=O)Oc4ccc5ccccc5c4)C2O3)cc1)NO (stereo not given) |  | 0.307 µM |  | 19% | 13% | 12.4 µM | -17% | -26% | 0.102 µM | 32.2 µM | 7.7 µM | 0.349 µM | 0.322 µM | 0.16 µM |  | > 100 µM | 

Second part, led by results:

Row | EC50 [1] | Ki [2] | EC50 [3] | Efficacy [5] | Efficacy [6] | IC50 [8] | Efficacy [9] | Efficacy [10] | Ki [11] | IC50 [12] | IC50 [13] | IC50 ([14]; read-out: IC50) | IC50 [15] | IC50 [16] | IC50 [14] | Compound | IC50 [4] | selectivity ratio [7]
7 | 1.16 µM | 4.43 µM | 1.1 µM | 100% | 67% | 53.8 µM | 100% | 87% | 0.0815 µM | 17.9 µM |  |  |  |  |  | COc1cccc(OS(=O)(=O)C2CC3OC2C(c2ccc(NC(=O)CCCCCCC(=O)O)cc2)=C3c2ccc(O)cc2)c1 (racemic) | > 100 µM | > 5.59
8 | 3.69 µM |  | 8.1 µM | 120% | 77% | 23.8 µM | 105% | 108% |  | 3.6 µM |  |  | 0.071 µM |  | Not Active | O=C(O)CCCCCCC(=O)Nc1ccc(C2=C(c3ccc(O)cc3)C3CC(S(=O)(=O)Oc4cccc(O)c4)C2O3)cc1 (racemic) | > 100 µM | 
9 | 0.016 µM | 0.159 µM | 1.8 µM | 78% | 84% | > 100 µM | 65% | 104% | 0.0952 µM | > 100 µM | 0.29 µM |  |  |  |  | COc1ccccc1OS(=O)(=O)C1CC2OC1C(c1ccc(NC(=O)CCCCCCC(=O)O)cc1)=C2c1ccc(O)cc1 (racemic) | > 100 µM | 
10 |  |  | 0.38 µM | 117% | -3% | > 100 µM | 24% | 43% |  | 7.9 µM |  | 0.022 µM | 5.01 µM | 0.46 µM |  | Cc1ccccc1OS(=O)(=O)C1CC2OC1C(c1ccc(NC(=O)CCCCCCC(=O)O)cc1)=C2c1ccc(O)cc1 (racemic) | > 100 µM | 
11 |  | 4.43 µM | 0.054 µM | 48% | 38% | 32.2 µM | 29% | 115% | > 5 µM | 22.9 µM | 0.613 µM |  |  |  |  | Cc1cccc(OS(=O)(=O)C2CC3OC2C(c2ccc(NC(=O)CCCCCCC(=O)NO)cc2)=C3c2ccc(O)cc2)c1 (racemic) | > 100 µM | 
12 | 18 µM |  |  | 85% | 38% | > 100 µM | -13% | 99% |  | 24.8 µM | 0.28 µM |  |  |  |  | O=C(O)CCCCCCC(=O)Nc1ccc(C2=C(c3ccc(O)cc3)C3CC(S(=O)(=O)Oc4ccc(F)cc4)C2O3)cc1 (racemic) | > 100 µM | 
13 | 2.42 µM | 0.133 µM | 13.4 µM | 23% | 79% | > 100 µM | 69% | 99% | 0.039 µM | > 100 µM | 11.7 µM |  |  |  |  | O=C(O)CCCCCCC(=O)Nc1ccc(C2=C(c3ccc(O)cc3)C3CC(S(=O)(=O)Oc4ccc(O)cc4)C2O3)cc1 (racemic) | > 100 µM | 
14 |  | 0.126 µM |  | 77% | -36% | > 100 µM | -3% | 75% | 0.0605 µM | > 100 µM | 0.25 µM |  |  | 1.7 µM |  | O=C(O)CCCCCCC(=O)Nc1ccc(C2=C(c3ccc(O)cc3)C3CC(S(=O)(=O)Oc4ccc(Br)cc4)C2O3)cc1 (racemic) | > 100 µM | 
